Assay results as given in PubChem BioAssay (NCI).
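Each compound was tested at five concentrations against cells in 96-well plates for 48 hours. The concentration for full growth arrest is given as TGI.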

Columns and labels:
Assay in all cases: NCI tumour cell line growth inhibition, 48 h
LXFL 529 NSCLC = system: LXFL 529 NSCLC
RXF-631 renal = system: RXF-631 renal
KM20L2 colon = system: KM20L2 colon
MDA-N = system: MDA-N
BT-549 breast = system: BT-549 breast
MDA-MB-435 = system: MDA-MB-435
T-47D breast = system: T-47D breast
PC-3 prostate = system: PC-3 prostate
HS 578T breast = system: HS 578T breast
SN12K1 renal = system: SN12K1 renal
P388/ADR leukemia = system: P388/ADR leukemia
786-0 renal = system: 786-0 renal

Compound | TGI (KM20L2 colon) [µM] | TGI (MDA-N) [µM] | TGI (MDA-MB-435) [µM] | TGI (T-47D breast) [µM] | TGI (PC-3 prostate) [µM] | TGI (HS 578T breast) [µM] | TGI (SN12K1 renal) [µM] | TGI (P388/ADR leukemia) [µM] | further results
COc1cc(C2c3cc4c(cc3OC3(O)COC(=O)C23)OCO4)cc(OC)c1OC (stereo not drawn) | 54.3 |  |  |  |  |  |  |  | TGI (LXFL 529 NSCLC): > 100 µM; TGI (RXF-631 renal): > 100 µM
CC(=O)Nc1ccc(C2=N/C(=C\c3ccc(Cl)c(Cl)c3)C(=O)O2)cc1 | > 100 |  |  |  |  |  |  |  | TGI (LXFL 529 NSCLC): > 100 µM; TGI (RXF-631 renal): > 100 µM
COc1ccc2c(C)cc(N/N=C/c3sccc3C)nc2c1 |  | 27.3 | 35.4 | 33.6 | 31.9 | 36.7 |  |  | TGI (BT-549 breast): 28.9 µM
Nc1ccc2cc(S(=O)(=O)O)cc(O)c2c1N=Nc1ccc(NC(=O)Nc2ccc(N=Nc3c(N)ccc4cc(S(=O)(=O)O)cc(O)c34)c(S(=O)(=O)O)c2)cc1S(=O)(=O)O |  |  |  |  |  |  | > 100 | > 100 | 
CCCCC(NC(=O)CC)C(=O)O (stereo not drawn) | > 100 |  |  |  |  |  | > 100 | > 100 | 
CN1C[C@H]2[C@@H](C1=O)[C@H](c1ccc([N+](=O)[O-])cc1)ON2C |  | > 100 | > 100 | > 100 | > 100 | > 100 |  |  | 
COc1cc(C2C(Cl)C(=O)N2NC(=O)c2ccc(NC(C)=O)cc2)cc(Br)c1O (stereo not drawn) |  |  |  |  |  |  |  |  | TGI (LXFL 529 NSCLC): > 100 µM
NC(=O)NC(CC(=O)O)C(=O)O (stereo not drawn) |  | > 100 | > 100 | > 100 | > 100 | > 100 |  |  | TGI (BT-549 breast): > 100 µM; TGI (786-0 renal): > 100 µM
CC1C(=O)C(C)C(c2cccs2)N(N=O)C1c1cccs1 (stereo not drawn) | > 100 |  |  |  |  |  | > 100 | > 100 | 
O=C1ON(Cc2ccccc2)C(c2ccccc2)N1c1ccccc1 (stereo not drawn) | > 100 |  |  |  |  |  | > 100 | > 100 | 
CN(C)CCCc1cccnc1 |  | > 100 | > 100 | > 100 | > 100 | > 100 |  |  | TGI (BT-549 breast): > 100 µM; TGI (786-0 renal): > 100 µM
